Consider 27 molecules from patent US20240246918A1, “COMPOUNDS AND COMPOSITIONS AS EIF4E INHIBITORS AND THE USES THEREOF” (Ribometrix, Inc., priority 2022, published 2024).

Test [1] deals with T1, human eIF4E protein (Homo sapiens, UniProt P06730).
T1 construct: purchased Novus NBP-45314
Put plainly: Biochemical competitive binding assay (TR-FRET competition, EDA-m7GDP-ATTO-647N probe). Particulars: read-out: hEIF4E TR-FRET IC50. As to the method: The potencies of compounds binding to human eIF4E protein were measured using a 384-well time-resolved fluorescence resonance energy transfer (TR-FRET) competition assay. The assay was performed in assay buffer containing 50 mM HTEPES pH 7.5, 100 mM KCl, 0.02% Tween-20, and 0.1 mg/mL bovine serum albumin (BSA). The reaction volume was 10 μL and each reaction contained 4 nM recombinant 6×HIS-tagged human EIF4E protein (Novus, NBP-45314), 5 nM EDA-m7GDP-ATTO-647N (Jena Bioscience, NU-827-647N), 2.5 nM Europium conjugated Anti-6×HIS antibody (PerkinElmer, AD0402) and varying concentrations of compound. The final DMSO concentration was […].
Compounds were prepared using 11-point, 4-fold serial dilutions in DMSO and 100 nL of diluted compounds were transferred to 384-well assay-ready plates. Recombinant human EIF4E protein at 2× final concentration (8 nM) was pre-incubated with Eu-anti-6×HIS antibody at 2× final concentration (5 nM) for 5 minutes, then 5 μL of the protein solution was added to assay-ready plates. The protein/compound mix was incubated for 15 minutes, after which 5 μL of a solution containing EDA-m7GDP-ATTO-647N probe at 2× final concentration (10 nM) was added. After a subsequent 15-minute incubation, time-resolved fluorescence of assay plates was measured using a Clariostar Plus microplate reader (BMG Labtech) and TR-FRET values were calculated by taking a ratio of the 665 to 620 wavelength signals. After normalization to the average of DMSO control and maximum inhibition control wells, concentration-response data were plotted and standard 4-parameter curve fitting (PEI Signals) was utilized to determine IC50 values.
In general terms: In TR-FRET formats the signal depends on donor and acceptor labels being close together.

Test [2] relates to COLO 205 colorectal tumor cells. In words: Tumor cell viability inhibition assay (CellTiter-Glo 2.0, 72 hours). The test is classed as cell-based. Particulars: COLO 205 cell viability. As to the method:
The effect of compound treatment on COLO 205 tumor cell viability was assessed using cellular ATP quantification methods (Promega CellTiter-Glo® 2.0, G9241), as follows. Test compounds were prepared using 11-point, 4-fold serial dilutions in DMSO and 100 nL of diluted compounds were transferred to 384-well assay-ready plates. COLO 205 (ATCC, CCL-222) colorectal tumor cells were seeded to assay-ready plates in RPMI-1640 medium supplemented with 10% FBS at 1500 cells in a volume of 33.5 microliters per well. After 72 hours of compound treatment, cellular ATP was assessed by CellTiter-Glo® 2.0 Cell Viability Assay method, according to the manufacturer's instructions. Luminescence was measured using a Clariostar Plus microplate reader (BMG Labtech) or equivalent. After normalization to the average of DMSO control and maximum inhibition control wells, concentration-response data were plotted and standard 4-parameter curve fitting (PEI Signals) was utilized to determine IC50
A general note: ATP-based viability assays read luminescence as a measure of living cells.

T1 sequence (P06730 whole entry): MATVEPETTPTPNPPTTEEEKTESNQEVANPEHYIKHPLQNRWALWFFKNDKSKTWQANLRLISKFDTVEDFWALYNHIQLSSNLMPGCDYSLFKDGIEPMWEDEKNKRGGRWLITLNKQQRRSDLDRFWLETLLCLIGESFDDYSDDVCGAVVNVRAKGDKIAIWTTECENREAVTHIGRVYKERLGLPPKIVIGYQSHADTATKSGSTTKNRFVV

The IC50 is the concentration needed to halve the response being measured. `Cc1cc(-c2cc(Cl)ccc2OCCn2c(C)nc3c(c2=O)CC(N2CCC(OC(F)(F)F)CC2)CC3(C)C)c2scc(C(=O)O)c2n1` (single isomer, unassigned) [Compound 442, 7-(5-chloro-2-(2-(2,8,8-trimethyl-4-oxo-6-(4-(trifluoromethoxy)piperidin-1-yl)-5,6,7,8-tetrahydroquinazolin-3(4H)-yl)ethoxy)phenyl)-5-methylthieno[3,2-b]pyridine-3-carboxylic acid]: the IC50 in test [1] is under 0.1 µM; in test [2] (Homo sapiens, COLO 205, 72 h) it was 5 to 20 µM.
In the same order, the values of `Cc1cc(-c2cc(Cl)ccc2OCCn2c(C)nc3c(c2=O)C[C@H](N2CCO[C@H](COC(F)(F)F)C2)CC3)c2scc(C(=O)O)c2n1` (single isomer, unassigned) [Compound 478] are under 0.1 µM and under 5 µM.
In the same order, the values of `Cc1cc(-c2cc(Cl)ccc2OCCn2c(C)nc3c(c2=O)C[C@H](N2CC4CCC(C2)C4OC(F)(F)F)CC3)c2scc(C(=O)O)c2n1` (single isomer, unassigned) [Compound 494] are under 0.1 µM and under 5 µM.
In the same order, the values of `Cc1cc(-c2cc(Cl)ccc2OCCn2c(C)nc3c(c2=O)C[C@@H](N2CCC4(CC2)CC4(F)F)CC32CC2)c2scc(C(=O)O)c2n1` (single isomer, unassigned) [Compound 591] are under 0.1 µM and under 5 µM.
`COC1CCN(C2CCc3nc(C)n(CC#Cc4ccc(Cl)cc4-c4ccnc5c(C(=O)NS(C)(=O)=O)csc45)c(=O)c3C2)CC1` (single isomer, unassigned) [Compound 491]: the IC50 was under 0.1 µM in test [1] and under 5 µM in test [2].
For `Cc1cc(-c2cc(Cl)ccc2OCCn2c(C)nc3c(c2=O)C[C@H](N2CCO[C@@H](CC(F)(F)F)C2)CC3)c2scc(C(=O)O)c2n1` (single isomer, unassigned) [Compound 523], the IC50 in test [1] is under 0.1 µM; in test [2] (Homo sapiens, COLO 205, 72 h) it was under 5 µM.
In the same order, the values of `Cc1cc(-c2cc(Cl)ccc2OCCn2c(C)nc3c(c2=O)C[C@@H](N2CCCC[C@@H]2c2cccc(C(F)(F)F)c2)CC3)c2scc(C(=O)O)c2n1` (single isomer, unassigned) [Compound 588] are 0.1 to 0.5 µM and 5 to 20 µM.
On to `Cc1cc(-c2cc(Cl)ccc2OCCn2c(C)nc3c(c2=O)CC(C)(N(C)CC2CC(F)(F)C2)CC3)c2scc(C(=O)O)c2n1` (single isomer, unassigned) [Compound 599], for which the IC50 in test [1] was under 0.1 µM; in test [2] (Homo sapiens, COLO 205, 72 h), 5 to 20 µM.
On the same counts, the results for `Cc1cc(-c2cc(Cl)ccc2OCCn2c(C)nc3c(c2=O)C[C@H](N2CCCC[C@@H]2c2cccc(F)c2)CC32CC2)c2scc(C(=O)O)c2n1` (single isomer, unassigned) [Compound 634, 7-(5-chloro-2-(2-(6′-(2-(3-fluorophenyl)piperidin-1-yl)-2′-methyl-4′-oxo-6′,7′-dihydro-4′H-spiro[cyclopropane-1,8′-quinazolin]-3′(5′H)-yl)ethoxy)phenyl)-5-methylthieno[3,2-b]pyridine-3-carboxylic acid] are 0.1 to 0.5 µM and over 20 µM.
As to `CO[C@@H](C1CCN([C@@H]2CCc3nc(C)n(CCOc4ccc(Cl)cc4-c4cc(C)nc5c(C(=O)O)csc45)c(=O)c3C2)CC1)C(F)(F)F` (single isomer, unassigned) [Compound 551], the IC50 was under 0.1 µM in test [1] and under 5 µM in test [2] (Homo sapiens, COLO 205, 72 h).
For the molecule `Cc1cc(-c2cc(Cl)ccc2OCCn2c(C)nc3c(c2=O)C[C@@H](N2CCC(c4noc5ccc(F)cc45)CC2)CC3)c2scc(C(=O)O)c2n1` (single isomer, unassigned) [Compound 449], the IC50 in test [1] was under 0.1 µM; in test [2] (Homo sapiens, COLO 205, 72 h), under 5 µM.
On to `Cc1cc(-c2cc(Cl)ccc2OCCn2c(C)nc3c(c2=O)C[C@H](N2CCC(n4cc(Cl)cn4)CC2)CC3)c2scc(C(=O)O)c2n1` (single isomer, unassigned) [Compound 108], for which the half-maximal inhibitory concentration (IC50) in test [1] was under 0.1 µM; in test [2] (Homo sapiens, COLO 205, 72 h), under 5 µM.
For the molecule `Cc1cc(-c2cc(Cl)ccc2OCCn2c(C)nc3c(c2=O)C[C@H](N2CCC(c4cnc(C(F)(F)F)nc4)CC2)CC3)c2scc(C(=O)O)c2n1` (single isomer, unassigned) [Compound 584], the IC50 in test [1] is under 0.1 µM; in test [2] (Homo sapiens, COLO 205, 72 h) it was 5 to 20 µM.
On to `Cc1cc(-c2cc(Cl)ccc2OCCn2c(C)nc3c(c2=O)CC(N2CCC4(CC2)CN(CC(F)(F)F)CCO4)CC3)c2scc(C(=O)O)c2n1` (single isomer, unassigned) [Compound 518], for which the IC50 in test [1] is under 0.1 µM; in test [2] it was under 5 µM.
On the same counts, the results for `Cc1cc(-c2cc(Cl)ccc2C#CCn2c(C)nc3c(c2=O)CC(C)(N2CCCC4(C2)CC4(F)F)CC3)c2scc(C(=O)O)c2n1` (single isomer, unassigned) [Compound 614] are under 0.1 µM and under 5 µM.
In the case of `Cc1cc(-c2cc(Cl)ccc2OCCn2c(C)nc3c(c2=O)C[C@@H](N2CCCC[C@H]2c2cccc(F)c2)CC32CC2)c2scc(C(=O)O)c2n1` (single isomer, unassigned) [Compound 628, 7-(5-chloro-2-(2-(6′-(2-(3-fluorophenyl)piperidin-1-yl)-2′-methyl-4′-oxo-6′,7′-dihydro-4′H-spiro[cyclopropane-1,8′-quinazolin]-3′(5′H)-yl)ethoxy)phenyl)-5-methylthieno[3,2-b]pyridine-3-carboxylic acid], the half-inhibitory concentration (IC50) was under 0.1 µM in test [1] and under 5 µM in test [2] (Homo sapiens, COLO 205, 72 h).
Regarding `Cc1cc(-c2cc(Cl)ccc2OCCn2c(C)nc3c(c2=O)C[C@H](N2CCC(c4cn(C)cn4)CC2)CC3)c2scc(C(=O)O)c2n1` (single isomer, unassigned) [Compound 486], the 50% inhibitory concentration (IC50) in test [1] was under 0.1 µM; in test [2] (Homo sapiens, COLO 205, 72 h), over 20 µM.
In the same order, the values of `Cc1cc(-c2cc(Cl)ccc2OCCn2c(C)nc3c(c2=O)C[C@@H](N2CCC(c4ccn(C)n4)CC2)CC3)c2scc(C(=O)O)c2n1` (single isomer, unassigned) [Compound 454] are under 0.1 µM and under 5 µM.
On to `COC1CCN(C2(C)CCc3nc(C)n(CCOc4ccc(Cl)cc4-c4cc(C)nc5c(C(=O)O)csc45)c(=O)c3C2)CC1` (single isomer, unassigned) [Compound 496], for which the figures for the IC50 in test [1] and in test [2] were under 0.1 µM and under 5 µM, respectively.
In the case of `Cc1cc(-c2cc(Cl)ccc2OCCn2c(C)nc3c(c2=O)C[C@H](N2CCC[C@H](OC(F)(F)F)C2)CC3)c2scc(C(=O)O)c2n1` (single isomer, unassigned) [Compound 457], the IC50 in test [1] is under 0.1 µM; in test [2] (Homo sapiens, COLO 205, 72 h) it was under 5 µM.
In the same order, the values of `Cc1cc(-c2cc(Cl)ccc2OCCn2c(C)nc3c(c2=O)C[C@@H](N2CCCC(C)[C@@H]2C(F)(F)F)CC32CC2)c2scc(C(=O)O)c2n1` (single isomer, unassigned) [Compound 625] are 0.1 to 0.5 µM and 5 to 20 µM.
On the same counts, the results for `Cc1csc([C@@H]2CCCN([C@H]3CCc4nc(C)n(CCOc5ccc(Cl)cc5-c5cc(C)nc6c(C(=O)O)csc56)c(=O)c4C3)C2)n1` (single isomer, unassigned) [Compound 481] are under 0.1 µM and under 5 µM.
Turning to `Cc1cc(-c2cc(Cl)ccc2OCCn2c(C)nc3c(c2=O)C[C@@](C)(N2CCC[C@@]4(C2)CC4(F)F)CC3)c2scc(C(=O)O)c2n1` (single isomer, unassigned) [Compound 555], the concentration for half-maximal inhibition (IC50) in test [1] was 0.1 to 0.5 µM; in test [2] (Homo sapiens, COLO 205, 72 h), 5 to 20 µM.
In the same order, the values of `Cc1cc(-c2cc(Cl)ccc2OCCn2c(C)nc3c(c2=O)C[C@@H](NC24CC5CC(CC(C5)C2)C4)CC3)c2scc(C(=O)O)c2n1` (single isomer, unassigned) [Compound 413] are under 0.1 µM and 5 to 20 µM.
On the same counts, the results for `Cc1cc(-c2cc(Cl)ccc2OCCn2c(C)nc3c(c2=O)C[C@@H](N2CCCCC(F)(F)C2)CC3)c2scc(C(=O)O)c2n1` (single isomer, unassigned) [Compound 470] are under 0.1 µM and under 5 µM.
In the same order, the values of `Cc1cc(-c2cc(Cl)ccc2OCCn2c(C)nc3c(c2=O)C[C@H](N2CCC[C@H](C(F)(F)F)C2)CC3)c2scc(C(=O)O)c2n1` (single isomer, unassigned) [Compound 381] are under 0.1 µM and under 5 µM.
For `Cc1cc(-c2cc(Cl)ccc2OCCn2c(C)nc3c(c2=O)C[C@](C)(N2CCC[C@@]4(C2)CC4(F)F)CC3)c2scc(C(=O)O)c2n1` (single isomer, unassigned) [Compound 554], the IC50 in test [1] lay within 0.1 to 0.5 µM; in test [2] (Homo sapiens, COLO 205, 72 h), 5 to 20 µM.
